16 compounds from US9260408B2, “Dihydroquinoline-2-one derivatives” (Hoffmann-La Roche Inc., priority 2011, dated 2016) can be followed below.

In one experiment the target is T1, human CYP11B2 (Homo sapiens, UniProt P19099).
T1 construct: expressed in transfected cells
T1 sequence (P19099 25-503): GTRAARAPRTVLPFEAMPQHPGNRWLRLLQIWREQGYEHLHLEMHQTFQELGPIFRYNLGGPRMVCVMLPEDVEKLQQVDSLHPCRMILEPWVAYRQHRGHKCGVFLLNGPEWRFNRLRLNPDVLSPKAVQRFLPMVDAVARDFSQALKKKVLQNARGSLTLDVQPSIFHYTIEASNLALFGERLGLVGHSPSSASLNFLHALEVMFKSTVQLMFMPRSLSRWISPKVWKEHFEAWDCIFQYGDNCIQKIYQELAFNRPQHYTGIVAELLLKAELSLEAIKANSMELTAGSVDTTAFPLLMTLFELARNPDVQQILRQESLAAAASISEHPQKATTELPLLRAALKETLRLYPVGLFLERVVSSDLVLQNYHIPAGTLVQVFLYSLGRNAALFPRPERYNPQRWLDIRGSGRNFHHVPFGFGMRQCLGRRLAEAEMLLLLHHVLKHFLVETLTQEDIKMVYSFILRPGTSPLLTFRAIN
Description: G-402 cellular enzyme assay, human CYP11B2 (aldosterone release, HTRF). It is filed as cell-based. The settings on record: G-402 cells expressing human CYP11B2; 1 μM Deoxycorticosterone. The text has this:
(§1) Herein we identified the use of the G-402 cell line as a host cell to ectopically express (transiently or stably) enzymes of the CYP11 family. Specifically we developed stable G-402 cells expressing ectopically human CYP11B1, human CYP11B2, human CYP11A1, cynomolgus CYP11B1 or cynomolgus CYP11B2 enzyme activity. Importantly the identified cell line G-402 expresses co-factors (adrenodoxin and adrenodoxin reductase) important for the activity of the CYP11 family and no relevant enzyme activity of the CYP11 family (in comparison to H295R cells) was detected in these cells. Therefore the G-402 cell line is uniquely suited as a host cell for the ectopic expression of enzymes from the CYP11 family.
(§2) G-402 cells can be obtained from ATCC(CRL-1440) and were originally derived from a renal leiomyoblastoma.
(§3) The expression plasmids contains the ORF for either human/cyno CYP11B1 or CYP11B2 under the control of a suitable promoter (CMV-promoter) and a suitable resistance marker (neomycin). Using standard techniques the expression plasmid is transfected into G-402 cells and these cells are then selected for expressing the given resistance markers. Individual cell-clones are then selected and assessed for displaying the desired enzymatic activity using 11-Deoxycorticosterone (Cyp11B2) or 11-Deoxycortisol (Cyp11B1) as a substrate.
(§4) G-402 cells expressing CYP11 constructs were established as described above and maintained in McCoy's 5a Medium Modified, ATCC Catalog No. 30-2007 containing 10% FCS and 400 μg/ml G418 (Geneticin) at 37° C. under an atmosphere of 5% CO2/95% air. Cellular enzyme assays were performed in DMEM/F12 medium containing 2.5% charcoal treated FCS and appropriate concentration of substrate (0.3-10 uM 11-Deoxycorticosterone, 11-Deoxycortisol or Corticosterone). For assaying enzymatic activity, cells were plated onto 96 well plates and incubated for 16 h. An aliquot of the supernatant is then transferred and analyzed for the concentration of the expected product (Aldosterone for CYP11B2; Cortisol for CYP11B1). The concentrations of these steroids can be determined using HTRF assays from CisBio analyzing either Aldosterone or Cortisol.
(§5) Inhibition of the release of produced steroids can be used as a measure of the respective enzyme inhibition by test compounds added during the cellular enzyme assay. The dose dependent inhibition of enzymatic activity by a compound is calculated by means of plotting added inhibitor concentrations (x-axes) vs. measured steroid/product level (y-axes). The inhibition is then calculated by fitting the following 4-parameter sigmoidal function (Morgan-Mercer-Flodin (MMF) model) to the raw data points using the least squares method:
(§6) [formula] wherein, A is the maximum y value, B is the EC50 factor determined using XLFit, C is the minimum y value and D is the slope value.
(§7) EC50 values for compounds claimed herein were tested with the G402-based assay system described. Cyp11B2 enzyme activity was tested in presence of 1 μM Deoxycorticosterone and variable amounts of inhibitors; Cyp11B1 enzyme activity was tested in presence of 1 μM Deoxycortisol and variable amounts of inhibitors.
A general note: In TR-FRET formats the signal depends on donor and acceptor labels being close together.

The target of another experiment is T2, human CYP11B1 (Homo sapiens, UniProt P15538).
T2 construct: expressed in transfected cells
T2 sequence (P15538 25-503): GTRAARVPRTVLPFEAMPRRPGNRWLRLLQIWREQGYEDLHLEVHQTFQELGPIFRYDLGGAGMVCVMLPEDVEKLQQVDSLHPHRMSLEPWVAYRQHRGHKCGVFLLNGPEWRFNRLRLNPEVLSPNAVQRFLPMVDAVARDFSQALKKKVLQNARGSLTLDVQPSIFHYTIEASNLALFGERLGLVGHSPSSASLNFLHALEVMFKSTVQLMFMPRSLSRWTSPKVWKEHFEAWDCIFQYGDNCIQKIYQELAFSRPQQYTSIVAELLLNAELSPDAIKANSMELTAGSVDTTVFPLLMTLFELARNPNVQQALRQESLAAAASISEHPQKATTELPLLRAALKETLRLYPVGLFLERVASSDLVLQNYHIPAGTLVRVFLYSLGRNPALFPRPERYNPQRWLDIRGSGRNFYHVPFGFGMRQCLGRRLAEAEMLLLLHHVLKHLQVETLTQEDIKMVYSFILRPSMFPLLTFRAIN
In words: G-402 cellular enzyme assay, human CYP11B1 (cortisol release, HTRF). It is filed as cell-based. The settings on record: G-402 cells expressing human CYP11B1; 1 μM Deoxycortisol.
From the text: as §1, §2, §3, §4, §5, §6, §7

Structures can show the parent of a compound that is named as a salt.

The term EC50 denotes the midpoint of the concentration-response curve. Low readings indicate a more potent agent, high ones a less potent agent.

Regarding `CCS(=O)(=O)NC(C)c1cncc(-c2ccc3c(c2)CCC(=O)N3C)c1` (single isomer, unassigned) [Example 173, Ethanesulfonic acid {(R or S)-1-[5-(1-methyl-2-oxo-1,2,3,4-tetrahydro-quinolin-6-yl)-pyridin-3-yl]-ethyl}-amide], the figures for the concentration for a half-maximal effect (EC50) at human CYP11B2 and at human CYP11B1 were 31 nM and 800 nM, respectively.
In the case of `CCS(=O)(=O)NC(C)c1cncc(-c2ccc3c(c2)CCC(=O)N3C)c1` (single isomer, unassigned) [Example 174, Ethanesulfonic acid {(S or R)-1-[5-(1-methyl-2-oxo-1,2,3,4-tetrahydro-quinolin-6-yl)-pyridin-3-yl]-ethyl}-amide], the results for the concentration for a half-maximal effect (EC50) on human CYP11B2 and on human CYP11B1 were 33 nM and 1230 nM, respectively.
For `CCS(=O)(=O)NC(C)c1cncc(-c2cc3c(cc2F)N(C)C(=O)CC3)c1` (single isomer, unassigned) [Example 190, Ethanesulfonic acid {(R or S)-1-[5-(7-fluoro-1-methyl-2-oxo-1,2,3,4-tetrahydro-quinolin-6-yl)-pyridin-3-yl]-ethyl}-amide] the same measures were 7 nM and 442 nM.
The matching figures for `CCS(=O)(=O)NC(C)c1cncc(-c2cc3c(cc2F)N(C)C(=O)CC3)c1` (single isomer, unassigned) [Example 191, Ethanesulfonic acid {(S or R)-1-[5-(7-fluoro-1-methyl-2-oxo-1,2,3,4-tetrahydro-quinolin-6-yl)-pyridin-3-yl]-ethyl}-amide]: 10 nM and 777 nM.
For `CC(NC(=O)c1ncccc1Cl)c1cncc(-c2ccc3c(c2)CCC(=O)N3C)c1` (single isomer, unassigned) [Example 230, 3-Chloro-pyridine-2-carboxylic acid {(R or S)-1-[5-(1-methyl-2-oxo-1,2,3,4-tetrahydro-quinolin-6-yl)-pyridin-3-yl]-ethyl}-amide] the same measures were 1 nM and 7 nM.
For `Cc1c(-c2ccc3c(c2)CCC(=O)N3C)cncc1C(C)N[S@+]([O-])C(C)(C)C` (single isomer, unassigned) [Example 239, (R)-2-Methyl-propane-2-sulfinic acid {(R or S)-1-[4-methyl-5-(1-methyl-2-oxo-1,2,3,4-tetrahydro-quinolin-6-yl)-pyridin-3-yl]-ethyl}-amide], the results for the EC50 at human CYP11B2 and at human CYP11B1 were 21 nM and 401 nM, respectively.
In the case of `Cc1c(-c2ccc3c(c2)CCC(=O)N3C)cncc1C(C)N` (single isomer, unassigned) [Example 240, 6-[5-((R or S)-1-Amino-ethyl)-4-methyl-pyridin-3-yl]-1-methyl-3,4-dihydro-1H-quinolin-2-one hydrochloride], the EC50 on human CYP11B2 came to 250 nM; on human CYP11B1, 15000 nM.
The matching figures for `Cc1c(-c2ccc3c(c2)CCC(=O)N3C)cncc1C(C)NC(=O)c1ncccc1Cl` (single isomer, unassigned) [Example 241, 3-Chloro-pyridine-2-carboxylic acid {(R or S)-1-[4-methyl-5-(1-methyl-2-oxo-1,2,3,4-tetrahydro-quinolin-6-yl)-pyridin-3-yl]-ethyl}-amide]: 7 nM and 251 nM.
The matching figures for `Cc1noc(C)c1C(=O)NC(C)c1cncc(-c2ccc3c(c2)CCC(=O)N3C)c1C` (single isomer, unassigned) [Example 242, 3,5-Dimethyl-isoxazole-4-carboxylic acid {(R or S)-1-[4-methyl-5-(1-methyl-2-oxo-1,2,3,4-tetrahydro-quinolin-6-yl)-pyridin-3-yl]-ethyl}-amide]: 100 nM and 3690 nM.
The matching figures for `CC(N[S@+]([O-])C(C)(C)C)c1cncc(-c2ccc3c(c2)CCC(=O)N3C)c1Cl` (single isomer, unassigned) [Example 249, (R)-2-Methyl-propane-2-sulfinic acid {(R or S)-1-[4-chloro-5-(1-methyl-2-oxo-1,2,3,4-tetrahydro-quinolin-6-yl)-pyridin-3-yl]-ethyl}-amide]: 14 nM and 261 nM.
For the compound `CC(N)c1cncc(-c2ccc3c(c2)CCC(=O)N3C)c1Cl` (single isomer, unassigned) [Example 250, 6-[5-((R or S)-1-Amino-ethyl)-4-chloro-pyridin-3-yl]-1-methyl-3,4-dihydro-1H-quinolin-2-one hydrochloride], the EC50 on human CYP11B2 was 35 nM; at human CYP11B1, 1250 nM.
The matching figures for `CC(NC(=O)c1ncccc1Cl)c1cncc(-c2ccc3c(c2)CCC(=O)N3C)c1Cl` (single isomer, unassigned) [Example 251, 3-Chloro-pyridine-2-carboxylic acid {(R or S)-1-[4-chloro-5-(1-methyl-2-oxo-1,2,3,4-tetrahydro-quinolin-6-yl)-pyridin-3-yl]-ethyl}-amide]: 1 nM and 6 nM.
Turning to `Cc1c(-c2cc3c(cc2F)N(C)C(=O)CC3)cncc1C(C)N[S@+]([O-])C(C)(C)C` (single isomer, unassigned) [Example 252, (R)-2-Methyl-propane-2-sulfinic acid {(R or S)-1-[5-(7-fluoro-1-methyl-2-oxo-1,2,3,4-tetrahydro-quinolin-6-yl)-4-methyl-pyridin-3-yl]-ethyl}-amide], the half-maximal effective concentration (EC50) worked out at 26 nM on human CYP11B2 and 468 nM at human CYP11B1.
For the compound `Cc1c(-c2cc3c(cc2F)N(C)C(=O)CC3)cncc1C(C)N` (single isomer, unassigned) [Example 253, 6-[5-((R or S)-1-Amino-ethyl)-4-methyl-pyridin-3-yl]-7-fluoro-1-methyl-3,4-dihydro-1H-quinolin-2-one hydrochloride], the EC50 at human CYP11B2 was found to be 193 nM; at human CYP11B1, 4480 nM.
For `Cc1noc(C)c1C(=O)NC(C)c1cncc(-c2ccc3c(c2)CCC(=O)N3C)c1Cl` (single isomer, unassigned) [Example 257, 3,5-Dimethyl-isoxazole-4-carboxylic acid {(R or S)-1-[4-chloro-5-(1-methyl-2-oxo-1,2,3,4-tetrahydro-quinolin-6-yl)-pyridin-3-yl]-ethyl}-amide] the same measures were 22 nM and 679 nM.
For `Cc1c(-c2cc3c(cc2F)N(C)C(=O)CC3)cncc1C(C)NC(=O)c1ncccc1Cl` (single isomer, unassigned) [Example 258, 3-Chloro-pyridine-2-carboxylic acid {(R or S)-1-[5-(7-fluoro-1-methyl-2-oxo-1,2,3,4-tetrahydro-quinolin-6-yl)-4-methyl-pyridin-3-yl]ethyl}-amide] the same measures were 13 nM and 291 nM.
